Tested on: FGFR2
Experiment: FRS2, Erk1/2 and PLCγ phosphorylation in FGFR2-transfected HEK293 cells (western blot)
Type: cell-based, human
Details: compound at 1 μM
Description: HEK293 cells were either transiently of stably transfected (using FuGENE 6, Roche) with hFGFR2IIIca or hFGFR2IIIca-Y328D cloned in pcDNA3 (Invitrogen). Stably transfected cells were grown in G418 (400 μg/ml) containing medium. Before stimulation, the cells were starved overnight in DMEM (0% serum), and pre-incubated with […] at the required concentration. The cells were subsequently stimulated with FGF2 (concentration between 0.5-10 ng/ml) for 5 min at 37° C. with or without SSR or SU5402 at 1 μM. After washing with ice-cold phosphate-buffered saline containing phosphatase inhibitors (Roche), cells were lysed in RIPA buffer (Tris 30 mM HCl pH 7.5, 150 mM NaCl, 1 mM EDTA, 1% triton-X, 0.5% w/v deoxycholate, containing phophatase and protease inhibitors as described by the manufacturer (Roche)). Cell lysates were centrifuged at 12,000 g for 10 min, and the supernatants were collected. Proteins were separated on Novex polyacrylamide gels (Invitrogen, Carlsbad, Calif.) and subsequently transferred onto Hybond ECL nitrocellulose membranes (Amersham Pharmacia). Following incubation with 5% non-fat milk powder in PBS, the membranes were incubated overnight at 4° C. with the following antibodies: phospho-ERK1/2 (CST:9101), phospho-FRS2 (CST:3861), phospho-PLCγ (CST:2821) and FGFR2 (F0300, Sigma).
In order to evaluate SSR effect on FGFR-controlled phosphor-signalling, HEK293 cells have been transfected with FGFR2 and the two main pathways following FGFR autophosphorylation, PLCγ and FRS2, have been studied by western blot in comparison with a published FGFR tyrosine kinase inhibitor SU5402 described to inhibit FGFR-dependent FRS2 and PLCγ cascades (Zhen et al., Oncogene 2007). In such cells, FGF induces FRS2, Erk1/2 and PLCγ phosphorylation. […] More generally, these differences in phosphorylation can be used as reporter to evaluate allosteric modulators.

Cc1c[nH]c(/C=C2\C(=O)Nc3ccccc32)c1CCC(=O)O [SU5402]
blocks: FGF-induced Erk1/2 phosphorylation | FGF-induced FRS2 phosphorylation | FGF-induced PLCγ phosphorylation
